Data reported in patent US9169252B2 (BRISTOL-MYERS SQUIBB COMPANY, priority 2014, dated 2015).
Counter-ions that a name gives are not always drawn. Like-named read-outs stand apart in the source and are kept apart here.

What was measured:
[1] = target: IRAK4 (Homo sapiens (Human), UniProt Q9NWZ3); test: IRAK4 Inhibition Assay; assay type: biochemical
Experimental: The assays were performed in U-bottom 384-well plates. […] The reaction was initiated by the combination of IRAK4 with substrates and test compounds. The reaction mixture was incubated at room temperature for 60 min. and terminated by adding 45 μL of 35 mM EDTA to each sample. The reaction mixture was analyzed on the Caliper LABCHIP® 3000 (Caliper, Hopkinton, Mass.) by electrophoretic separation of the fluorescent substrate and phosphorylated product.

[2] = system: TLR2 induced IL-6 in peripheral blood mononuclear cells (PBMCs); test: PBMC TLR2 Induced IL-6 Assay; assay type: cell-based, human; details: IL-6 by ELISA; for EC50: read-out: Cell EC50; for IC50: read-out: Cell IC50
Experimental: PBMC TLR2 Induced IL-6 Assay
Peripheral blood mononuclear cells (PBMCs) were isolated from human blood containing the anti-coagulant EDTA (2.5 mM) by centrifugation over a FICOLL® gradient. PBMCs (250000 cells/well) were cultured in assay media (RPMI with 10% heat inactivated FCS) with compounds for 30 minutes at 37° C. in a 5% CO2 incubator. Following pretreatment with compounds, cells were stimulated for 5 hours with 10 µg/ml lipoteichoic acid (Invivogen, San Diego, Calif.), a TLR2 agonist. At the end of the culture, plates were centrifuged at 1800 rpm for 10 minutes to pellet the cells.

[3] = IRAK4 Inhibition Assay, ATP 500 μM, read-out: IRAK4 IC50
[4] = PBMC TLR2 Induced IL-6 Assay, lipoteichoic acid stimulation
[5] = Homo sapiens, PBMC, PBMC TLR2 Induced IL-6 Assay, lipoteichoic acid stimulation
[6] = ATP 500 μM, IRAK4 0.6 nM, read-out: IRAK4 IC50
[7] = Homo sapiens, PBMC, human PBMCs, lipoteichoic acid stimulated
[8] = human PBMCs, lipoteichoic acid stimulated

Chain of IRAK4 (Q9NWZ3 whole entry, species assumed): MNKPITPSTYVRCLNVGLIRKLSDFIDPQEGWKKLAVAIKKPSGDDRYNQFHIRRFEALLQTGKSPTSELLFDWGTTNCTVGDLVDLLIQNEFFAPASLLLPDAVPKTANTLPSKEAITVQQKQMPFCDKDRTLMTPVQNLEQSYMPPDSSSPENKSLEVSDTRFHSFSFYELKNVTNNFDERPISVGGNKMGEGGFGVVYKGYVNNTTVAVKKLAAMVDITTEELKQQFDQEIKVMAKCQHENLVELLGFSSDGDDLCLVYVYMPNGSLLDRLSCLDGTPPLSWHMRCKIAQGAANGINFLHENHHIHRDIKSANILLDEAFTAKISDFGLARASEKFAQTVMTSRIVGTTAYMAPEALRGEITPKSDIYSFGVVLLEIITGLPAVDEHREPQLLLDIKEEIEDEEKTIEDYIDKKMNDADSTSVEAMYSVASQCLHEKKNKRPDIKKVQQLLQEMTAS

## 6-(5-cyano-1H-pyrrolo[2,3-b]pyridin-1-yl)-N—((S)-2-fluoro-3-hydroxy-3-methylbutyl)-4-((3-fluorotetrahydro-2H-pyran-4-yl)amino) nicotinamide [Example 108]
[1]; [3]
  IC50: 3.5 nM
[2]; [4]
  EC50: 172 nM

## CC(CCF)Nc1cc(-n2ncc3cc(C#N)cnc32)ncc1C(=O)NC[C@@H](F)C(C)(C)O (mixture of isomers) [Example 205]
[1]; [3]
  IC50: 7 nM
[2]; [5]
  EC50: 240 nM

## CC(F)Cn1cc(Nc2cc(-n3cnc4cc(C#N)cnc43)ncc2C(=O)NC[C@@H](F)C(C)(C)O)cn1 (mixture of isomers) [Example 378]
[1]; [3]
  IC50: 2.6 nM
[2]; [5]
  IC50: 655 nM

## CC(C)(O)[C@H](F)CNC(=O)c1cnc(-n2ccc3cc(C#N)cnc32)cc1NC1CC1c1c[nH]cn1 (mixture of isomers) [Example 460]
[1]; [6]
  IC50: 3.3 nM
[2]; [7]
  EC50: 88 nM
  IC50: 113 nM

## CC1COCCN1CCNc1cc(-n2ccc3cc(C#N)cnc32)ncc1C(=O)NC[C@@H](F)C(C)(C)O (mixture of isomers) [Example 483]
[1]; [6]
  IC50: 10.8 nM
[2]; [7]
  EC50: 199 nM

## CC(F)(CO)CNc1cc(-n2ncc3cc(C#N)cnc32)ncc1C(=O)NC[C@@H](F)C(C)(C)O (mixture of isomers) [Example 575]
[1]; [6]
  IC50: 11.8 nM
[2]; [7]
  IC50: 587 nM

## CC(CCO)Nc1cc(-n2ccc3cc(C#N)cnc32)ncc1C(=O)NC[C@@H](F)C(C)(C)O (single isomer, unassigned) [Example 21]
[1]; [3]
  IC50: 2.3 nM
[2]; [5]
  EC50: 51 nM

## CC(CCO)Nc1cc(-n2ccc3cc(C#N)cnc32)ncc1C(=O)NC[C@@H](F)C(C)(C)O (single isomer, unassigned) [Example 22]
[1]; [3]
  IC50: 1.8 nM
[2]; [4]
  EC50: 47 nM

## CC(C)(O)[C@H](F)CNC(=O)c1cnc(-n2ccc3cc(C#N)cnc32)cc1NC1CCOCC1F (single isomer, unassigned) [Example 106]
[1]; [3]
  IC50: 1.9 nM
[2]; [5]
  IC50: 896 nM
[2]; [4]
  EC50: 896 nM

## CC(C)(O)[C@H](F)CNC(=O)c1cnc(-n2ccc3cc(C#N)cnc32)cc1NC1CCOCC1F (single isomer, unassigned) [Example 107]
[1]; [3]
  IC50: 1.8 nM
[2]; [4]
  EC50: 57 nM

## CC(C)(O)[C@H](F)CNC(=O)c1cnc(-n2ccc3cc(C#N)cnc32)cc1NC1CCC(F)C1 (single isomer, unassigned) [Example 109]
[1]; [3]
  IC50: 1 nM
[2]; [5]
  EC50: 45 nM

## CC(C)(O)[C@H](F)CNC(=O)c1cnc(-n2ccc3cc(C#N)cnc32)cc1NC1CCC(F)C1 (single isomer, unassigned) [Example 110]
[1]; [3]
  IC50: 1.3 nM
[2]; [4]
  EC50: 47 nM

## CC(C)(O)[C@H](F)CNC(=O)c1cnc(-n2ccc3cc(C#N)cnc32)cc1NC1CCCC(F)(F)C1O (single isomer, unassigned) [Example 112]
[1]; IRAK4 IC50
  IC50: 4.4 nM
[2]; [5]
  EC50: 159 nM

## CC(C)Nc1cc(-n2ccc3cc(C#N)cnc32)ncc1C(=O)NC[C@@H](F)C(C)NC(C)C (single isomer, unassigned) [Example 129]
[1]; [3]
  IC50: 4.1 nM
[2]; [4]
  EC50: 451 nM

## CC(C)Nc1cc(-n2ccc3cc(C#N)cnc32)ncc1C(=O)NC[C@@H](F)C(C)NC(C)C (single isomer, unassigned) [Example 130]
[1]; [3]
  IC50: 2.3 nM
[2]; [4]
  EC50: 99 nM

## CC(C)(O)[C@H](F)CNC(=O)c1cnc(-n2ncc3cc(C#N)cnc32)cc1NC1CCCOC1 (single isomer, unassigned) [Example 142]
[1]; [3]
  IC50: 11.4 nM
[2]; [5]
  EC50: 354 nM

## CC(C)(O)[C@H](F)CNC(=O)c1cnc(-n2ncc3cc(C#N)cnc32)cc1NC1CCCOC1 (single isomer, unassigned) [Example 143]
[1]; [3]
  IC50: 6.5 nM
[2]; [4]
  EC50: 185 nM

## CC(F)[C@H](C)Nc1cc(-n2ncc3cc(C#N)cnc32)ncc1C(=O)NC[C@@H](F)C(C)(C)O (single isomer, unassigned) [Example 202]
[1]; [3]
  IC50: 10.6 nM
[2]; [5]
  EC50: 131 nM

## CC(F)[C@H](C)Nc1cc(-n2ncc3cc(C#N)cnc32)ncc1C(=O)NC[C@@H](F)C(C)(C)O (single isomer, unassigned) [Example 203]
[1]; [3]
  IC50: 3.9 nM
[2]; [4]
  EC50: 124 nM

## CC(C)Nc1cc(-n2ncc3cc(C#N)cnc32)ncc1C(=O)NC[C@@H](F)C(O)C(C)C (single isomer, unassigned) [Example 232]
[1]; [3]
  IC50: 2.3 nM
[2]; [5]
  EC50: 33 nM
  IC50: 211 nM

## CC(C)Nc1cc(-n2ncc3cc(C#N)cnc32)ncc1C(=O)NC[C@@H](F)C(O)C(C)C (single isomer, unassigned) [Example 233]
[1]; [3]
  IC50: 3.6 nM
[2]; [4]
  EC50: 38 nM
  IC50: 176 nM

## CC(CCF)Nc1cc(-n2ccc3cc(C#N)cnc32)ncc1C(=O)NC[C@@H](F)C(C)(C)O (single isomer, unassigned) [Example 426]
[1]; [6]
  IC50: 1.6 nM
[2]; [7]
  EC50: 51 nM

## CC(CCF)Nc1cc(-n2ccc3cc(C#N)cnc32)ncc1C(=O)NC[C@@H](F)C(C)(C)O (single isomer, unassigned) [Example 427]
[1]; [6]
  IC50: 2.8 nM
[2]; [8]
  EC50: 89 nM

## CC(C)(O)[C@H](F)CNC(=O)c1cnc(-n2ccc3cc(C#N)cnc32)cc1NC1CCCC(CO)C1 (single isomer, unassigned) [Example 445]
[1]; [6]
  IC50: 5.3 nM
[2]; [7]
  EC50: 108 nM

## CC(C)CC(C)Nc1cc(-n2ccc3cc(C#N)cnc32)ncc1C(=O)NC[C@@H](F)C(C)(C)O (single isomer, unassigned) [Example 454]
[1]; [6]
  IC50: 5.9 nM
[2]; [7]
  EC50: 757 nM
  IC50: 289 nM

## CC(O)CCNc1cc(-n2ccc3cc(C#N)cnc32)ncc1C(=O)NC[C@@H](F)C(C)(C)O (single isomer, unassigned) [Example 461]
[1]; [6]
  IC50: 2.5 nM
[2]; [8]
  EC50: 74 nM
  IC50: 122 nM

## CC(O)CCNc1cc(-n2ccc3cc(C#N)cnc32)ncc1C(=O)NC[C@@H](F)C(C)(C)O (single isomer, unassigned) [Example 462]
[1]; [6]
  IC50: 2.9 nM
[2]; [8]
  EC50: 66 nM
  IC50: 398 nM

## CC(C)(O)[C@H](F)CNC(=O)c1cnc(-n2ccc3cc(C#N)cnc32)cc1NC1COCC1(F)F (single isomer, unassigned) [Example 484]
[1]; [6]
  IC50: 3.5 nM
[2]; [8]
  IC50: 282 nM

## C[C@H](CF)Nc1cc(-n2ncc3cc(C#N)cnc32)ncc1C(=O)NC[C@@H](F)C(C)(C)O [Example 114, 6-(5-Cyano-1H-pyrazolo[3,4-b]pyridin-1-yl)-N—((R)-2-fluoro-3-hydroxy-3-methylbutyl)-4-(((R)-1-fluoropropan-2-yl)amino)nicotinamide]
[1]; [3]
  IC50: 4.6 nM

## CC(C)Nc1cc(-n2ccc3cc(CNC(=O)CC(C)(C)O)cnc32)ncc1C(=O)NC[C@@H](F)C(C)(C)O [Example 499]
[2]; [7]
  IC50: 213 nM

## CC(C)(O)[C@H](F)CNC(=O)c1cnc(-n2ncc3cc(C#N)cnc32)cc1Nc1ccc(C#N)cc1 [Example 523]
[2]; [7]
  EC50: 24 nM

## CC(C)(O)[C@H](F)CNC(=O)c1cnc(-n2ncc3cc(C#N)cnc32)cc1N[C@@H]1CCN(c2ncc(F)cn2)C1 [Example 534]
[2]; [7]
  IC50: 824 nM
[2]; [8]
  EC50: 59 nM

## CC(C)(O)[C@H](F)CNC(=O)c1cnc(-n2ncc3cc(C#N)cnc32)cc1N[C@@H]1CCOC1 [Example 544, 6-(5-Cyano-1H-pyrazolo[3,4-b]pyridin-1-yl)-N—((R)-2-fluoro-3-hydroxy-3-methylbutyl)-4-(((R)-tetrahydrofuran-3-yl)amino)nicotinamide, TFA salt]
[2]; human PBMCs, lipoteichoic acid stimulated, TFA salt
  EC50: 239 nM

## CC(C)(O)[C@H](F)CNC(=O)c1cnc(-n2ncc3cc(C#N)cnc32)cc1N[C@H]1CCOC1 [Example 545, 6-(5-Cyano-1H-pyrazolo[3,4-b]pyridin-1-yl)-N—((R)-2-fluoro-3-hydroxy-3-methylbutyl)-4-(((S)-tetrahydrofuran-3-yl)amino)nicotinamide, TFA salt]
[2]; [7]
  EC50: 476 nM

## CC(C)(O)[C@H](F)CNC(=O)c1cnc(-n2ncc3cc(C#N)cnc32)cc1N[C@@H]1CCOC1 [Example 548]
[2]; [7]
  IC50: 763 nM
[2]; [8]
  EC50: 708 nM

## CCCNc1cc(-n2ncc3cc(C#N)cnc32)ncc1C(=O)NC[C@@H](F)C(C)(C)O [Example 592]
[2]; [7]
  IC50: 271 nM

## CC(F)CCNc1cc(-n2ncc3cc(C#N)cnc32)ncc1C(=O)NC[C@@H](F)C(C)(C)O (some centres unmarked) [Example 604]
[2]; [7]
  IC50: 104 nM

## CC(C)(O)[C@H](F)CNC(=O)c1cnc(-n2ncc3cc(C#N)cnc32)cc1NC1CCC(F)C1 (some centres unmarked) [Example 625]
[2]; [8]
  IC50: 210 nM

## CC(C)(O)[C@H](F)CNC(=O)c1cnc(-n2ncc3cc(C#N)cnc32)cc1NC1CCC(F)C1 (some centres unmarked) [Example 626]
[2]; [8]
  IC50: 76 nM

## CC(C)(O)[C@H](F)CNC(=O)c1cnc(-n2ncc3cc(C#N)cnc32)cc1NC1CCC(F)C1 (some centres unmarked) [Example 627]
[2]; [8]
  IC50: 7 nM
